Measurements: publication PMC12583498, “Distinct filament morphology and membrane tethering features of the dual FtsZ paralogs in Odinarchaeota” (The EMBO journal, 2025)

How the values were obtained:
OdinFtsZ1 [1] = target: T1, OdinFtsZ1 (Candidatus Odinarchaeum yellowstonii, UniProt A0AAF0ID74); experiment: cryo-EM structure of filament; type: binding; settings: […] GMPCPP, […] MgCl2, pH […], on ice; nucleotide pocket at subunit interface; map resolution […] A
T1 construct: full length (363 residues by primer name), synthetic gene, 6His-bdSUMO tag cleaved by Ulp protease, E. coli BL21(DE3); residues 34-332 modelled in cryo-EM
T1 sequence (A0AAF0ID74 1-360): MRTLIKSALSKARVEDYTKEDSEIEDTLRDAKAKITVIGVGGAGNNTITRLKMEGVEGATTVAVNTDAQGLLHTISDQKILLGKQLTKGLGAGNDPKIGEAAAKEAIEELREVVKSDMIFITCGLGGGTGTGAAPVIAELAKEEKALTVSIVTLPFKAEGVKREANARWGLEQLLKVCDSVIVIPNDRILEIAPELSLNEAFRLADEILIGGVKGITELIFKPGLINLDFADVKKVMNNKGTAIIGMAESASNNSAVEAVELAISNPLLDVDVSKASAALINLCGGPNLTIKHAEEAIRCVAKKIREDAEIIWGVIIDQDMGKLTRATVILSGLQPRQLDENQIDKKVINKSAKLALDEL

[2] = target: OdinSepF (Candidatus Odinarchaeum yellowstonii LCB_4); experiment: SEC-MALS; Superdex 75 Increase 10/300 GL, HK50 buffer (50 mM HEPES pH 7.4, 50 mM KCl), room temperature, OdinSepF 2 mg/ml, 100 μl
OdinFtsZ2 [3] = target: T2, OdinFtsZ2 (Candidatus Odinarchaeum yellowstonii, UniProt A0AAF0D3V8); experiment: negative-stain TEM of polymerization; type: biochemical; settings: […] nucleotide, […] MgCl2, pH […] KCl, […] °C
T2 construct: gene ftsZ; full length, synthetic gene, 6His-bdSUMO tag cleaved by Ulp protease, E. coli BL21(DE3); assembles into stacked rings
T2 sequence (A0AAF0D3V8 1-402): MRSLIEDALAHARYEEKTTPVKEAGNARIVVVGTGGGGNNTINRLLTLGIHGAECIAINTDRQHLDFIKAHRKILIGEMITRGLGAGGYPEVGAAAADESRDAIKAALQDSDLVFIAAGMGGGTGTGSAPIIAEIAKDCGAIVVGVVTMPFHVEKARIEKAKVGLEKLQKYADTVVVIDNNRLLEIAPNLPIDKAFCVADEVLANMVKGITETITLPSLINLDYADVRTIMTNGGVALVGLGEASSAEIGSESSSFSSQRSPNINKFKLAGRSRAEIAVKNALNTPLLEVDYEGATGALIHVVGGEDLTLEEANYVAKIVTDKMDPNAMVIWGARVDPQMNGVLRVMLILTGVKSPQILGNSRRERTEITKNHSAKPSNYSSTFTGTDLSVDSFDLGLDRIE

OdinFtsZ1 [4] = target: T1, OdinFtsZ1; experiment: light scattering and sedimentation assay of polymerization; type: biochemical; settings: […] GTP, […] Mg2+, pH […] KCl, […] °C
OdinFtsZ2 [5] = target: T2, OdinFtsZ2; experiment: […] degree light scattering and TEM / cryo-EM of polymerization; type: biochemical; settings: […] GTP, […] Mg2+, pH […] KCl, […] °C; nucleotide-dependent assembly

Molecule: Nc1nc2c(ncn2[C@@H]2O[C@H](COP(=O)(O)CP(=O)(O)OP(=O)(O)O)[C@@H](O)[C@H]2O)c(=O)[nH]1 [GMPCPP]
- cryo-EM structure of filament (OdinFtsZ1 [1]): A non-protein density was detected within the nucleotide-binding pocket using Servalcat

Molecule: OdinSepF (natural protein)
- stoichiometry N [2]: 2

Molecule: Nc1nc2c(ncn2[C@@H]2O[C@H](COP(=O)(O)OP(=O)(O)OP(O)(O)=S)[C@@H](O)[C@H]2O)c(=O)[nH]1 [GTPγS]
- negative-stain TEM of polymerization (OdinFtsZ2 [3]): OdinFtsZ2 formed highly curved, stacked ring-like structures when provided with GTP or GTPγS

Molecule: Nc1nc2c(ncn2[C@@H]2O[C@H](COP(=O)(O)OP(=O)(O)OP(=O)(O)O)[C@@H](O)[C@H]2O)c(=O)[nH]1 [GTP]
- light scattering and sedimentation assay of polymerization (OdinFtsZ1 [4]): GTP addition significantly enhanced the amount of OdinFtsZ1 in the pellet fraction
- 90 degree light scattering and TEM / cryo-EM of polymerization (OdinFtsZ2 [5]): OdinFtsZ2 formed highly curved, stacked ring-like structures when provided with GTP or GTPγS
